Source: ChEMBL document CHEMBL1201862, “PubChem BioAssay data set” (2004)
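96-well plates; 48 h exposure; 5 concentrations. Endpoints by linear interpolation between flanking doses. Not reached: highest tested concentration assigned. Here, GI50 denotes the concentration required for 50% inhibition of growth.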 Calls of active or inactive are those of the source. Cut-off read from the data, not from the text of the source: active = GI50 up to about 1.1 µM and inactive = higher.

What was measured:
Test in all cases: NCI anticancer screen, dose series, 48 h
MCF7 = system: MCF7
Malme-3M = system: Malme-3M
CCRF-CEM = system: CCRF-CEM
EKVX = system: EKVX
UACC-62 = system: UACC-62
UACC-257 = system: UACC-257
IGROV-1 = system: IGROV-1
OVCAR-4 = system: OVCAR-4
OVCAR-5 = system: OVCAR-5
NCI-H226 = system: NCI-H226
SF-268 = system: SF-268
COLO 205 = system: COLO 205
NCI/ADR-RES = system: NCI/ADR-RES
ACHN = system: ACHN
KM12 = system: KM12
A498 = system: A498
A549 = system: A549
SK-OV-3 = system: SK-OV-3
NCI-H23 = system: NCI-H23
OVCAR-8 = system: OVCAR-8

Measured: GI50

CCC/C(Cl)=N\OC(=O)Nc1ccc(F)cc1
inactive: MCF7 20 µM | Malme-3M 6.87 µM | CCRF-CEM 1.63 µM | EKVX 17.3 µM | UACC-62 13.6 µM | UACC-257 16.7 µM | IGROV-1 17.3 µM | OVCAR-4 16.9 µM | OVCAR-5 18.7 µM | NCI-H226 19.7 µM | SF-268 26.1 µM | COLO 205 3.16 µM | NCI/ADR-RES 21.1 µM | ACHN 12.3 µM | KM12 20.6 µM | A498 16.9 µM | A549 52.8 µM | SK-OV-3 > 45.1 µM | NCI-H23 20.3 µM | OVCAR-8 25.4 µM

Cc1cc2oc(=N)c(C#N)c(C)c2cc1C
inactive: MCF7 31.9 µM | Malme-3M 43 µM | CCRF-CEM 36.6 µM | EKVX 30.3 µM | UACC-62 47.4 µM | UACC-257 > 100 µM | IGROV-1 26.5 µM | OVCAR-4 56.2 µM | OVCAR-5 > 100 µM | NCI-H226 87.7 µM | SF-268 44 µM | COLO 205 48.1 µM | NCI/ADR-RES 55.1 µM | ACHN 38.5 µM | KM12 39.9 µM | A498 > 100 µM | A549 48.8 µM | SK-OV-3 35.2 µM | NCI-H23 31.3 µM | OVCAR-8 72.3 µM
